How the values were obtained:
[1] = test system: P2X7R left flipper point mutant D280A; assay: Two-electrode voltage clamp of ATP-evoked currents in Xenopus oocytes; assay type: cell-based, human
Protocol: (§1) The production of the correct mutations and absence of coding errors was determined by DNA sequencing (Automated ABI Sequencing Service, University of Leicester, UK). cRNA was generated for the mutants and 50 nl (50 ng) was injected into manually defoliculated stage V Xenopus laevis oocytes using an Inject+Matic microinjector (J.A. Gabay, Inject+Matic, Geneva, Switzerland). Injected oocytes were stored at 16°C in ND96 buffer [in millimolar concentrations, NaCl 96, KCl 2, CaCl2 1.8, MgCl2 1, sodium pyruvate 5, and HEPES 5 (pH 7.6) supplemented with 50 μg/ml gentamycin and 50 μg/ml tetracycline]. Three to seven days postinjection two-electrode voltage clamp recordings were made from oocytes bathed in divalent-free ND96 buffer (in millimolar concentrations, NaCl 96, KCl 2, sodium pyruvate 5, HEPES 5, and 0.1 flufenamic acid, pH 7.6). Oocytes were voltage clamped at a holding potential of −60 mV with a GeneClamp500B amplifier (Molecular Devices).
(§2) Inhibition by the antagonists was expressed as the percentage of the peak current amplitude of an EC90 concentration of ATP recorded before the application of antagonist (ATP gave reproducible responses to ATP in the absence of antagonist). Inhibition curves were fitted with the Hill equation (variable slope) using GraphPad Prism 6 (GraphPad Software, San Diego, CA). […]

[2] = test system: P2X7R left flipper point mutant K281A; assay: as above; assay type: cell-based, human
Protocol: (§3) Injected oocytes were stored at 16°C in ND96 buffer [in millimolar concentrations, NaCl 96, KCl 2, CaCl2 1.8, MgCl2 1, sodium pyruvate 5, and HEPES 5 (pH 7.6) supplemented with 50 μg/ml gentamycin and 50 μg/ml tetracycline]. Three to seven days postinjection two-electrode voltage clamp recordings were made from oocytes bathed in divalent-free ND96 buffer (in millimolar concentrations, NaCl 96, KCl 2, sodium pyruvate 5, HEPES 5, and 0.1 flufenamic acid, pH 7.6). Oocytes were voltage clamped at a holding potential of −60 mV with a GeneClamp500B amplifier (Molecular Devices).
(§4) Electrophysiological traces were digitized with a Digidata 1322A and collected using pCLAMP 8.2 software (Molecular Devices, Menlo Park, CA). An EC90 concentration of ATP was used to test antagonist sensitivity for the P2X7-2Nβ and mutant receptors [ATP sensitivity of the chimeras and mutants are reported in [Allsopp et al. (2017)]] to standardize for any changes in ATP sensitivity.
(§5) Inhibition by the antagonists was expressed as the percentage of the peak current amplitude of an EC90 concentration of ATP recorded before the application of antagonist (ATP gave reproducible responses to ATP in the absence of antagonist). […] Any significant differences from the P2X7-2Nβ control were calculated by one-way analysis of variance, followed by Dunnett’s test (using GraphPad Prism 6). […]

[3] = test system: P2X7R left flipper point mutant T282A; assay: as above; assay type: cell-based, human
Protocol: as §1, §2

[4] = test system: P2X7R left flipper point mutant T283A; assay: as above; assay type: cell-based, human
Protocol: as §3, §4, §5

[5] = test system: P2X7R left flipper point mutant N284A; assay: as above; assay type: cell-based, human
Protocol: as §1, §2

P2X7R point mutant R206A = target: T1, P2X7R point mutant R206A (Homo sapiens, UniProt Q99572, I21V/M24R/N16P/N25R/Q22R/R206A/R20V/S23N/T19I/Y26L); assay: as above; assay type: cell-based; conditions: mean ± S.E.M.
T1 construct: expressed in transfected cells; host or cells: Xenopus laevis oocytes (cRNA injection)
T1 sequence (Q99572 whole entry N16P/T19I/R20V/I21V/Q22R/S23N/M24R/N25R/Y26L/R206A): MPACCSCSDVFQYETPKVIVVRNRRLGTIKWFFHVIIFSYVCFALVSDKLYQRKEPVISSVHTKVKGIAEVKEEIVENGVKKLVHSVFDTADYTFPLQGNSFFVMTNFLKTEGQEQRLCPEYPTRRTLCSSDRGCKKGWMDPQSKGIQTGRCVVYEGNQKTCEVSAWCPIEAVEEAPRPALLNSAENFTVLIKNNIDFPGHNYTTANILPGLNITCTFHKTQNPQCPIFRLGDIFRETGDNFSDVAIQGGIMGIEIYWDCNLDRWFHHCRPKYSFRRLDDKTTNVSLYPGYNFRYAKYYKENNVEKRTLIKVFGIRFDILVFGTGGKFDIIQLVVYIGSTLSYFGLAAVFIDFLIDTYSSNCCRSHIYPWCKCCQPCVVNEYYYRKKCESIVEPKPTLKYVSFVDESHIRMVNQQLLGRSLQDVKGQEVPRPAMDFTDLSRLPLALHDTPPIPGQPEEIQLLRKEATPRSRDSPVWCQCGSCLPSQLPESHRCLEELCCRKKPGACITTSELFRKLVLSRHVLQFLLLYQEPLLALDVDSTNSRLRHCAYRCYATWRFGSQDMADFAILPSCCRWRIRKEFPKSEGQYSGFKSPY
Protocol: as §3, §4, §5

P2X7R point mutant K193A = target: T2, P2X7R point mutant K193A (Homo sapiens, UniProt Q99572, I21V/K193A/M24R/N16P/N25R/Q22R/R20V/S23N/T19I/Y26L); assay: as above; assay type: cell-based
T2 construct: expressed in transfected cells; host or cells: Xenopus laevis oocytes (cRNA injection)
T2 sequence (Q99572 whole entry N16P/T19I/R20V/I21V/Q22R/S23N/M24R/N25R/Y26L/K193A): as the sequence (Q99572 whole entry N16P/T19I/R20V/I21V/Q22R/S23N/M24R/N25R/Y26L/R206A) above, with K193A, A206R counted along it
Protocol: as §3, §4, §5

[6] = target: T3, chimeric P2X7R with left flipper 280–284 of P2X4 (Homo sapiens, UniProt Q99572, D280T/I21V/K281R/M24R/N16P/N25R/N284E/Q22R/R20V/S23N/T19I/T282D/T283V/Y26L); conditions: chimera 280–284 of P2X4
T3 sequence (Q99572 1-595 N16P/T19I/R20V/I21V/Q22R/S23N/M24R/N25R/Y26L/D280T/K281R/T282D/T283V/N284E): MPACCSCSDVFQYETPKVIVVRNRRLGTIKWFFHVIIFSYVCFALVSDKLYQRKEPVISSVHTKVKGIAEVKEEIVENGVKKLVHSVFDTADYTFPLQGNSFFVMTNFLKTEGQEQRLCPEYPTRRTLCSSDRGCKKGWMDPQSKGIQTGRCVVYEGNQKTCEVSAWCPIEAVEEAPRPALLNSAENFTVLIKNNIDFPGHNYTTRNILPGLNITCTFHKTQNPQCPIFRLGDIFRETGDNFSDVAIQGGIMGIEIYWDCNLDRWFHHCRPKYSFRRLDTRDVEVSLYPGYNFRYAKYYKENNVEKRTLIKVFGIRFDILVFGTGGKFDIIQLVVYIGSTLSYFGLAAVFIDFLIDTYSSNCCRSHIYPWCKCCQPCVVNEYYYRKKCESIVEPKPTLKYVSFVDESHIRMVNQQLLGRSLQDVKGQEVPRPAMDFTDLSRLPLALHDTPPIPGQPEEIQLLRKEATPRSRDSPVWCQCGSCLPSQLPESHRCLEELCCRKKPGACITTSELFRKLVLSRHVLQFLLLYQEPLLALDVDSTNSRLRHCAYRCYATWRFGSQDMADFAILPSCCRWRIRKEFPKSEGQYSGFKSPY
Protocol: as §1
Inhibition by the antagonists was expressed as the percentage of the peak current amplitude of an EC90 concentration of ATP recorded before the application of antagonist (ATP gave reproducible responses to ATP in the absence of antagonist). Inhibition curves were fitted with the Hill equation (variable slope) using GraphPad Prism 6 (GraphPad Software, San Diego, CA). […] Individual concentration-response curves were generated for individual experiments, and statistical analysis was carried out on the data generated. […] Data are shown as mean ± S.E.M. In all cases n ≥ 3 for all data points.

[7] = target: T4, chimeric P2X7/1 receptor 279–285 (left flipper) (Homo sapiens, UniProt Q99572, DEL279-281/I21V/M24R/N16P/N25R/N284E/Q22R/R20V/S23N/T19I/T282Y/T283E/V285K/Y26L); set-up: method as in Allsopp et al., 2017; conditions: chimera 279–285; ref Allsopp et al., 2017; cited from earlier work
T4 construct: expressed in transfected cells; host or cells: Xenopus laevis oocytes (cRNA injection)
T4 sequence (Q99572 with tags, fused parts or gaps N16P/T19I/R20V/I21V/Q22R/S23N/M24R/N25R/Y26L/DEL279-281/T282Y/T283E/N284E/V285K): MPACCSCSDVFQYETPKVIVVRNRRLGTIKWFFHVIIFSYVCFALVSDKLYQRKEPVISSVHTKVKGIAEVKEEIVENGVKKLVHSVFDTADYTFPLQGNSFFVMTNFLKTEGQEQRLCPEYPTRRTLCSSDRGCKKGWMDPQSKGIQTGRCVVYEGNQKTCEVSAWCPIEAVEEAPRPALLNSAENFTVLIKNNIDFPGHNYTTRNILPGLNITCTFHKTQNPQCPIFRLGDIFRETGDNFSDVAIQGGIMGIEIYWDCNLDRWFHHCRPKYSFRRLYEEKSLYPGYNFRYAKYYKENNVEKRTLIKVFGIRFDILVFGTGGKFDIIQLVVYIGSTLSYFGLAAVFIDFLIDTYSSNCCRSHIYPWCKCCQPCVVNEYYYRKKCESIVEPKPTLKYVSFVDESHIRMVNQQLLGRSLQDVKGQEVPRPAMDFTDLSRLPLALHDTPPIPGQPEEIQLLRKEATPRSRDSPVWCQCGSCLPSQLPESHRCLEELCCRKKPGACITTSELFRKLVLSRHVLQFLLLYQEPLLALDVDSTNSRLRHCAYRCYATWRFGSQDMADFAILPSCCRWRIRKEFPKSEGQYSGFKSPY

P2X7R = test system: P2X7R; set-up: method as in North, 2002; Kaczmarek-Hajek et al., 2012; conditions: physiologic concentrations of calcium and magnesium; ref North, 2002; Kaczmarek-Hajek et al., 2012; cited from earlier work
other P2XR subtypes = test system: other P2XR subtypes; set-up: method as in North, 2002; Kaczmarek-Hajek et al., 2012; conditions: ref North, 2002, Kaczmarek-Hajek et al., 2012; cited from earlier work

Nc1ncnc2c1ncn2[C@@H]1O[C@H](COP(=O)(O)OP(=O)(O)OP(=O)(O)O)[C@@H](O)[C@H]1O [ATP]
fold increase in ATP potency [1]: 15 fold
fold decrease in ATP sensitivity [2]: 2 fold
effect on ATP sensitivity [3]: no effect
fold decrease in ATP sensitivity [4]: 3.4 fold
effect on ATP sensitivity [5]: no effect
ATP sensitivity pEC50 (P2X7R point mutant R206A): 4.33 ± 0.06
amplitude of ATP-evoked responses (P2X7R point mutant K193A): < 100 nA
fold increase in ATP sensitivity/potency [6]: ~15 fold
fold increase in sensitivity to ATP [7]: ~30 fold
EC50 (P2X7R): 300 to 1000 µM
EC50 (other P2XR subtypes): 1 to 30 µM

Reference: publication PMC5896373 (Molecular Pharmacology, 2018)
